We go through 2 molecules from patent US20240336577A1, “PYRAZINE COMPOUND, AND METHOD OF PREPARATION AND USE THEREOF” (SHENZHEN OLIVE BIOPHARMACEUTICALS CO., LTD, priority 2020, published 2024).

Assay [1] concerns SH—SY5Y neuroblastoma cells. Put plainly: LPS-induced inflammatory factors and oxidative stress-related proteins, ELISA kit. In kind it is cell-based. The conditions noted are these: 1 μg/mL LPS 24 h, mean±SEM, n=8; for TNF-alpha: differentiated SH-SY5Y, supernatant. The protocol: The SH—SY5Y cells were recovered and cultured, and the cells in the logarithmic growth phase were taken. After 24 h of incubation, SH—SY5Y neuroblastoma cells were treated with 1 μM all-trans retinoic acid to induce differentiation, and then inoculated into a 6-well culture dish for 24 h of incubation. The medium was treated with chemicals feed at 0.2 μM (L) or 1 μM (H) and 1 μg/mL LPS for 24 h, a supernatant medium was aspirated, and changes of inflammatory factors and oxidative stress-related proteins were measured by an ELISA kit. Data were presented as mean±SEM; n=8 per group. One-way ANOVA and multiple range test were adopted to show differences between the two groups. a, p<0.05 vs. LPS group; b, p<0.01 vs. LPS group; c, p<0.001 vs. LPS group.

The subject of the next assay is db/db mice. Put plainly: Glucose and lipid metabolism in db/db mice, 56 d administration. It is filed as in vivo. The settings on record: once/d 56 d, TMP 5.0 mg/kg, mean±SEM, n=6; for Creatinine / Total cholesterol / Triglyceride / Urea: Losartan 10 mg/kg; for Creatinine / Total cholesterol / Triglyceride / Urea / Glucose determination / High-density lipoprotein cholesterol / Low-density lipoprotein cholesterol: OLB-1/OLB-2 13.32 mg/kg; for Glycated hemoglobin / Glucose determination / High-density lipoprotein cholesterol / Low-density lipoprotein cholesterol: metformin 225 mg/kg/d; for Glycated hemoglobin: OLB-1/OLB-2 13.32 mg/kg (0.037 mmol/kg). The protocol:
Mice of a normal control group and model mice were given normal saline 10 ml/kg/d, metformin hydrochloride enteric-coated tablets 225 mg/kg/d, Losartan 10 mg/kg, TMP (5.0 mg/kg, 0.037 mmol/kg), and OLB-1 and OLB-2 (13.32 mg/kg, 0.037 mmol/kg), at a volume of 10 mL/kg, once/d, for continuous administration of 56 d, blood lipids and blood glucose related indexes were measured after blood collection. Data were presented as mean±SEM; n=6 per group. One-way ANOVA and multiple range test were adopted to show differences between the two groups. a, p<0.05 vs. db/db group; c, p<0.001 vs. db/db group.

The subject of a further assay is 5*FAD mice. In words: Memory impairment in 5*FAD mice, electrical jumping (errors jumping off the platform). It is filed as in vivo. The settings on record: 6-month-old 5*FAD mice treated 3 months, low and high dosage; FIG. 5. The protocol: After 6-month-old 5*FAD mice were treated with OLB-1 and OLB-2 for 3 months, the number of errors that the mice jumped off the platform was detected by electrical jumping. 5*FAD mice were treated with low-dosage and high-dosage OLB-1 (low dosage: 2.31 mg/kg, 0.007 mmol/kg; high dosage: 11.70 mg/kg, 0.037 mmol/kg) and OLB-2 (low dosage: 2.3 mg/kg, 0.007 mmol/kg; high dosage: 11.67 mg/kg, 0.037 mmol/kg) and TMP (5.0 mg/kg, 0.037 mmol/kg, the same below). Data were presented as mean±SEM; n=10 per group. One-way ANOVA and multiple range test were adopted to show differences between the two groups. ***p<0.001 vs. WT group; #p<0.05, ##p<0.01 vs. 5*FAD group.

Consider `Cc1nc(C)c(COC(=O)OCCc2ccc(O)cc2)nc1C` [OLB-1], for which, in assay [1] (compound 0.2 μM (L)), the GSH-Px is 8.39 ± 0.69(c) umol/mg, the IL1 was 10.94 ± 1.48(a) pg/ml, the IL6 was 11.60 ± 1.39(a) pg/ml and the MDA is 16.15 ± 1.26(c) nmol/mg. Moreover, in assay [1] (compound 0.2 μM (L)), the SOD was 12.58 ± 0.72(b) nU/ml and the TNF-alpha is 9.64 ± 1.56(a) pg/ml. For the same molecule, in assay [1] (compound 1 μM (H)), the GSH-Px is recorded as 13.71 ± 0.84(c) umol/mg, the IL1 is recorded as 8.46 ± 1.33(b) pg/ml, the IL6 was 7.97 ± 1.61(c) pg/ml and the MDA was 10.51 ± 0.74(c) nmol/mg. Also, in assay [1] (compound 1 μM (H)), the SOD was 16.76 ± 0.38(c) nU/ml and the TNF-alpha is on record as 6.78 ± 1.67(c) pg/ml. Besides, in the assay on db/db mice, the Creatinine is 48.7 ± 3.68(a) μmol/L, the Total cholesterol is recorded as 8.36 ± 2.63(c) mM, the Triglyceride was 10.88 ± 0.92(b) mg/dL and the Urea is reported as 8.03 ± 0.61(c) mmol/L. Besides, in the assay on db/db mice, the Glycated hemoglobin is 643.06 ± 61.53(c) nmol/L, the Glucose determination is recorded as 25.99 ± 4.46(c) mM, the High-density lipoprotein cholesterol is 1.81 ± 0.15(b) mM and the Low-density lipoprotein cholesterol is reported as 0.69 ± 0.04(c) mM. In addition, the “memory impairment (number of errors jumping off the platform)” value in the assay with 5*FAD mice is reported as “significantly improve memory impairment”.
As for `Cc1nc(C)c(CNC(=O)OCCc2ccc(O)cc2)nc1C` [OLB-2], in assay [1] (compound 0.2 μM (L)), the GSH-Px was 7.93 ± 1.05(b) umol/mg, the IL1 is on record as 10.34 ± 1.89(a) pg/ml, the IL6 is 11.05 ± 1.87(a) pg/ml and the MDA is 15.75 ± 0.95(c) nmol/mg. Moreover, in assay [1] (compound 0.2 μM (L)), the SOD was 12.13 ± 0.65(b) nU/ml and the TNF-alpha is reported as 9.92 ± 1.44(b) pg/ml. Also, in assay [1] (compound 1 μM (H)), the GSH-Px is listed as 13.40 ± 1.24(c) umol/mg, the IL1 was 7.37 ± 1.58(c) pg/ml, the IL6 is recorded as 8.19 ± 1.24(c) pg/ml and the MDA is on record as 9.37 ± 0.73(c) nmol/mg. Further, in assay [1] (compound 1 μM (H)), the SOD is 15.16 ± 1.52(c) nU/ml and the TNF-alpha is listed as 6.99 ± 1.31(c) pg/ml. Moreover, in the assay on db/db mice, the Creatinine is reported as 46.28 ± 2.76(b) μmol/L, the Total cholesterol is 7.38 ± 0.34(c) mM, the Triglyceride is on record as 10.65 ± 0.54(b) mg/dL and the Urea is given as 7.48 ± 0.35(c) mmol/L. In the assay with db/db mice, the Glycated hemoglobin is 595.38 ± 52.47(c) nmol/L, the Glucose determination is 26.61 ± 1.15(c) mM, the High-density lipoprotein cholesterol is 1.87 ± 0.18(b) mM and the Low-density lipoprotein cholesterol is recorded as 0.51 ± 0.03(c) mM. The “memory impairment (number of errors jumping off the platform)” value with 5*FAD mice was “significantly improve memory impairment”.
